Test results: patent US20060270634A1, “Acetal phosphate-derived LPA mimics, PPARgamma activators, and autotaxin inhibitors” (priority 2005, published 2006)
Where two headings read alike, the source gives them in different places.

Experiments:
LPA1 = LPA1 (Homo sapiens, UniProt Q92633); experiment: Ca2+ transients in RH7777 cells expressing LPA1 (agonist / inhibition of LPA response); conditions: for LPA1 effect in words: Tables 2, 4, 6
Experimental: (§1) The biological effects of all synthesized compounds were testing using three high-throughput assays. First, intracellular calcium transients in rat hepatoma (RH777, an LPA receptor null cell) cell lines individually expressing either LPA1, LPA2, and LPA3 receptors were analyzed to evaluate compounds as agonists or antagonists.
(§2) Synthesized compounds were tested for induction and inhibition of LPA-induced calcium transients in rat hepatoma (RH7777) cell lines that stably express individual LPA1, LPA2, and LPA3 receptors as described in the literature using a FlexStation II automated fluorimeter (Molecular Devices, Sunnyvale, Calif.).
(§3) RH7777 cells, which lack LPA GPCR, were stably transfected with individual LPA1, LPA2 and LPA3 receptors and used for the in vitro screening.

LPA2 = LPA2 (Homo sapiens, UniProt Q9HBW0); experiment: Ca2+ transients in RH7777 cells expressing LPA2 (agonist / inhibition of LPA response)
Experimental: as §1, §2, §3

LPA3 = biological target: T1, LPA3 (Homo sapiens, UniProt Q9UBY5); experiment: Ca2+ transients in RH7777 cells expressing LPA3 (agonist / inhibition of LPA response)
T1 sequence (Q9UBY5 1-353): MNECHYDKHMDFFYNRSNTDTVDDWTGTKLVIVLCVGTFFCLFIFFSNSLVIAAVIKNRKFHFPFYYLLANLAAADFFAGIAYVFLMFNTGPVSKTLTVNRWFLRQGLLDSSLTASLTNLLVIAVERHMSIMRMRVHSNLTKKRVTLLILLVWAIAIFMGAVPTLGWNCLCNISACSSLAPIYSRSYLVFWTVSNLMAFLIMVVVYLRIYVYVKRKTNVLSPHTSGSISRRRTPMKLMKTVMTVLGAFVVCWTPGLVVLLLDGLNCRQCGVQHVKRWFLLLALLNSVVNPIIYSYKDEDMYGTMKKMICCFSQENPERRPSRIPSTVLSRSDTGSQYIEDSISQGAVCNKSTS
Experimental: as §1, §2, §3

PC3 cells = experiment: Calcium mobilization response in PC3 cells; assay type: cell-based
[1] = read-out: LPA3 IC50, 200 nM LPA

LPA1, sequence (Q92633 whole entry, species assumed): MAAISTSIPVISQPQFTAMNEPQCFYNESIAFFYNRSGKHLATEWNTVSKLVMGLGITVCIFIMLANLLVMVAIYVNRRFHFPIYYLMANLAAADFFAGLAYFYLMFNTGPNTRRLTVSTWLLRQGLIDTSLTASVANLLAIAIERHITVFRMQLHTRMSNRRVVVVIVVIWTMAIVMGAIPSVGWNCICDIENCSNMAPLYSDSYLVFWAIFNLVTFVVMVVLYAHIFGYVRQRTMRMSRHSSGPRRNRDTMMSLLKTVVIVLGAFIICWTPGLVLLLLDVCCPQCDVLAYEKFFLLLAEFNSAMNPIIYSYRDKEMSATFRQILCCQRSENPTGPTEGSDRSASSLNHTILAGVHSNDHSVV
LPA2, sequence (Q9HBW0 whole entry, species assumed): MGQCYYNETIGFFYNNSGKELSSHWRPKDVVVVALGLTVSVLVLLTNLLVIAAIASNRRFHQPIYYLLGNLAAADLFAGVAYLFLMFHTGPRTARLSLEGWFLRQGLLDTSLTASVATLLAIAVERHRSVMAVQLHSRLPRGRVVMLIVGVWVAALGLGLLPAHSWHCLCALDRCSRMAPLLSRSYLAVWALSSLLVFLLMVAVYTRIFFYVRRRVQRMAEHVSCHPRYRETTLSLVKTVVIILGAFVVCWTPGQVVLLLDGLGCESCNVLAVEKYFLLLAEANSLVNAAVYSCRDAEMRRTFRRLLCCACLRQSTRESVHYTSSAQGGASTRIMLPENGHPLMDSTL

SMILES: CCCCCCCCCCCCCCC(F)(F)P(=O)(O)O
- LPA1 effect in words (LPA1): Weak inhibition
- EC50 (LPA2; LPA2 EC50, Table 4): ~10000 nM
- LPA2 effect in words (LPA2; Table 4): Weak agonist
- IC50 (LPA3; [1]): 1510 nM

SMILES: CCCCCCCCc1ccc(CCCCCCCOP(O)(O)=S)cc1
- EC50 (LPA1; LPA1 EC50): 4830 nM
- LPA1 effect in words (LPA1): Partial agonist
- EC50 (LPA2; LPA2 EC50, Table 4): 6060 nM
- LPA2 effect in words (LPA2; Table 4): full agonist
- EC50 (LPA3): 858 nM
- LPA3 effect in words (LPA3; Tables 2, 4, 6): Partial agonist

SMILES: CCCCCCCCc1ccc(CCCCCCCOP(=O)(O)O)cc1
- EC50 (LPA1): 21500 nM
- LPA1 effect in words (LPA1): Partial agonist
- LPA2 effect in words (LPA2; Table 4): Weak antagonist
- IC50 (LPA3): 1760 nM

SMILES: CCCCCCCCCCCCC1OCC(COP(=O)(O)O)O1 (centres unmarked) [Analog 4]
- EC50 (LPA1): > 30000 nM
- IC50 (LPA1; LPA1 (nM) IC50, Table 1): 1110 nM
- IC50 (LPA1; LPA1 IC50, text): 1100 nM
- EC50 (LPA2; LPA2 EC50, text): 1180 nM
- EC50 (LPA3): > 30000 nM
- IC50 (LPA3): 2870 nM

SMILES: CCCCCCCC/C=C\CCCCCCCC1OCC(COP(=O)([O-])O)O1.[K+] (centres unmarked) [Analog 5]
- LPA2 agonist/antagonist activity in words (LPA2): full LPA2 agonist
- EC50 (LPA2; LPA2 (nM) EC50, Table 1): 68 nM
- EC50 (LPA3): > 30000 nM
- IC50 (LPA3): 527 nM
- LPA3 agonist/antagonist activity in words (LPA3): LPA1/3 antagonist

SMILES: CCCCCCCC/C=C\CCCCCCCC1OCC(COP([O-])(O)=S)O1.[K+] (centres unmarked) [Analog 6]
- IC50 (LPA1): > 30000 nM
- LPA1 agonist/antagonist activity in words (LPA1): pan-agonists
- EC50 (LPA1; LPA1 (nM) EC50, Table 1): 981 nM
- LPA2 agonist/antagonist activity in words (LPA2): pan-agonists
- EC50 (LPA2; LPA2 (nM) EC50, Table 1): 34 nM
- EC50 (LPA3): 639 nM
- IC50 (LPA3): > 30000 nM
- LPA3 agonist/antagonist activity in words (LPA3): pan-agonists

SMILES: CCCCCCCC/C=C\CCCCCCCC1OCC(COP(=O)([O-])O)O1.[K+] (centres unmarked) [Analog 13, 2-Heptadec-8-enyl-(1,3)dioxolan-4yl methyl dipotassium phosphate]
- IC50 (PC3 cells; Homo sapiens, PC-3, read-out: PC3 cells IC50): 1500 nM
- IC50 (PC3 cells; read-out: PC3 cells IC50, listed as 18:1 Δ 9 acetal phosphate): 1040 nM
- LPA2 effect in words (LPA2; *transient): full agonist
- EC50 (LPA2; LPA2 EC50, *transient): 68 nM
- IC50 (LPA2; RH-LPA2 cells IC50, inhibition of 200 nM LPA response): 460 nM
- IC50 (LPA2; RH-LPA2 cells IC50, inhibition of 300 nM LPA response): 777 nM
- IC50 (LPA3; [1]): 527 nM

SMILES: CCCCCCCCc1ccc(CCCCCCC2OCC(COP(=O)(O)O)O2)cc1 (centres unmarked) [Analog 14]
- IC50 (LPA1): 4660 nM
- EC50 (LPA1; LPA1 (nM) EC50, Table 1): > 30000 nM
- IC50 (LPA2): > 30000 nM
- EC50 (LPA2; LPA2 (nM) EC50, Table 1): > 30000 nM
- EC50 (LPA3): 692 nM
- IC50 (LPA3): > 30000 nM

SMILES: CCCCCCCCc1ccc(CCCCCCC2OCC(COP([O-])(O)=S)O2)cc1.[K+] (centres unmarked) [Analog 15]
- LPA1 agonist/antagonist activity in words (LPA1): no effect
- EC50 (LPA1; LPA1 (nM) EC50, Table 1): > 30000 nM
- IC50 (LPA2): > 30000 nM
- LPA2 agonist/antagonist activity in words (LPA2): no effect
- EC50 (LPA2; LPA2 (nM) EC50, Table 1): > 30000 nM
- EC50 (LPA3): > 30000 nM
- IC50 (LPA3): 504 nM
- LPA3 agonist/antagonist activity in words (LPA3): sub-type selective LPA3 antagonist

SMILES: CCCCCCCC/C=C\CCCCCCC[C@@H]1OC[C@H](COP(=O)(O)O)O1 [Analog 21]
- EC50 (LPA2; LPA2 (nM) EC50, Table 1): > 10000 nM
- IC50 (LPA2; LPA2 (nM) IC50, Table 1): > 30000 nM
- EC50 (LPA3): > 30000 nM
- IC50 (LPA3): 484 nM

SMILES: CCCCCCCC/C=C\CCCCCCC[C@@H]1OC[C@H](COP(O)(O)=S)O1 [Analog 22]
- IC50 (LPA2): > 30000 nM
- EC50 (LPA2; LPA2 (nM) EC50, Table 1): 1540 nM
- EC50 (LPA3): 204 nM
- IC50 (LPA3): > 30000 nM

SMILES: CCCCCCCC/C=C\CCCCCCC[C@H]1OC[C@H](COP(=O)(O)O)O1 [Analog 23]
- EC50 (LPA2; LPA2 (nM) EC50, Table 1): > 30000 nM
- IC50 (LPA2; LPA2 (nM) IC50, Table 1): > 30000 nM

SMILES: CCCCCCCC/C=C\CCCCCCC[C@H]1OC[C@H](COP(O)(O)=S)O1 [Analog 24]
- IC50 (LPA2): > 30000 nM
- EC50 (LPA2; LPA2 (nM) EC50, Table 1): 1320 nM

SMILES: CCCCCCCC/C=C\CCCCCCC[C@H]1OC[C@@H](COP(=O)(O)O)O1 [Analog 25]
- EC50 (LPA2; LPA2 (nM) EC50, Table 1): 1170 nM
- IC50 (LPA2; LPA2 (nM) IC50, Table 1): > 30000 nM
